Source: patent US11458153B2, “Drug delivery composition comprising a self-assembled gelator” (The Brigham and Women's Hospital, Inc., priority 2008, dated 2022)
Entries after “also recorded” stand apart in the source; their conditions may differ.

Columns and labels:
[1] = Gelation studies with Apn-based prodrug gelators in water and organic solvents; format: physicochemical; parameters: key to Gelation ability: G = gel; P = precipitate; S = soluble; I = insoluble
Excerpt: Gelation Studies with Prodrug-Based Gelators. Gelation abilities of Apn based amphiphilic prodrugs have been investigated thoroughly in a wide range of solvents. For detailed gelation results, see Table 1, below). Typically, the required amount of gelator was placed in a glass vial and with an appropriate solvent. […] The resulting solution was slowly cooled to room temperature and gelation was visually observed. […] Despite of prolonged heating Apn-11-CH3 was not soluble in water. […] In addition, Apn-7-COOH is soluble in basic solutions (pH is more than 8).
All gels were opaque in nature and stable for several weeks.
Preparation of Gels. Typically, gelator (0.1-5 mg) and required solvent (0.1-1 mL) were placed into a 2 mL scintillation vial, which was then sealed with a screw cap. The vial was heated with shaking until the solid was completely dissolved.

[2] = target: T1, lipase (Lipolase 100L, Type EX) (Thermomyces lanuginosus, UniProt O59952); assay: Enzyme-triggered hydrogel degradation and drug release; format: in vitro ADME
T1 construct: purchased Novozymes through Brenntag North America Lipolase 100L, Type EX
T1 sequence (O59952 23-291): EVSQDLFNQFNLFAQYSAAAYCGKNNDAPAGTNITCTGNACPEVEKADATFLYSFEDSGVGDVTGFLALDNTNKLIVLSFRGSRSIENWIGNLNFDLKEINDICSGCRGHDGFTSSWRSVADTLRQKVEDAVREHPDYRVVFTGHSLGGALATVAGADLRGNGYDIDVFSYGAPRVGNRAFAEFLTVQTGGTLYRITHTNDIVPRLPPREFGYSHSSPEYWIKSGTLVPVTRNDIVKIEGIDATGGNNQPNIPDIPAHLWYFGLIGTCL
Protocol: Encapsulation and release of curcumin was previously studied by the Ultra-Violet absorbance spectroscopy (λmax at 424 nm). Absorbance spectrum of modified Apn-7-COOH was similar to that of Apn (FIG. 6B). In this instance, enzyme-triggered single and multiple drug delivery has been carried out using two sets of hydrogel samples, i.e., hydrogels of Apn-7-COOH and Apn-8-Apn with and without curcumin. In the first set, lipase (Lipolase 100L, Type EX, lipase units 100 KLU/g) was added to the preformed hydrogel of Apn-7-COOH (2 wt %) and kept it at 37° C. which is lower than gel melting temperature. It was anticipated that lipase (esterase) would hydrolyze the ester bond of prodrug-based gelator (Apn-7-COOH) to release acetaminophen and dicarboxylic acid as the hydrogel degrades. As expected, after 48 hours the gel completely degraded and became a clear solution.
To test this further, and examine multiple (two) drugs delivery (FIGS. 6A-6E), curcumin was encapsulated in the hydrogel of Apn-7-COOH (2 wt %) and to that lipase was added and kept it at 37° C. Absorbance spectra were recorded on aliquots which were collected (after the addition of enzyme to the hydrogel) at regular intervals (FIG. 6C). […] The concentration of the enzyme used in these in vitro experiments is higher than physiological concentration of esterases (for example, physiological concentration of cholesterol esterase is 7 U/ml).
Increasing either concentration of enzyme or incubation temperature to 45° C. doubles the drug release rate, which was correlating with previous findings.
To analyze the gel degradation mechanism, another prodrug Apn-5-ether-COOH was synthesized (FIG. 2), where hydrocarbon chain (which is bearing terminal carboxylic acid) was connected to the acetaminophen through an ether bond (C—O—C) to prevent the esterolytic cleavage by lipase.

[3] = test system: mesenchymal stem cells (MSCs); assay: MSC adipogenic differentiation, Oil Red O staining; format: cell-based, human; details: 250 μM, 23 days of induction
Protocol: (§1) Unlike typical fibroblast cell lines used for toxicity screening, cultured mesenchymal stem cells are highly sensitive to the presence of soluble factors and can often loose their capacity for multi-lineage differentiation or differentiate into non-desired lineages depending on the culture conditions. To examine the impact of the acetaminophen amphiphilic prodrugs on multi-lineage differentiation of MSCs, cells were treated with adipogenic and osteogenic induction media in presence of amphiphiles followed by respective colorimetric histological staining.
Adipogenic Differentiation. MSCs were seeded in the wells of 24 well plates, and were culture in MSC expansion media until they reach 90% confluence (note: in control samples there was no amphiphile present, whereas in experimental samples 250 μM of Apn-based amphiphile was present). Adipogenic differentiation was induced by culturing the cells for 23 days in adipogenic induction media (from Lonza—MSCs Adipogenic Single Quote kit containing h-Insulin (recombinant), L-Glutamine, Dexamethasone, Indomethacin, IBMX (3-isobuty-1-methyl-xanthine), Pen/Strep) and adipogenic maintenance media (from Lonza—MSCs Adipogenic Single Quote kit containing h-Insulin (recombinant), L-Glutamine, Pen/Strep). […] Adipogenesis was evaluated by Oil Red O staining. Following aspiration of the media, cells were washed once with PBS, and fixed in PBS with 3.7% formaldehyde for 30 min at room temperature. Following fixation cells were rinsed with distilled water for a few minutes, and incubated with isopropanol containing an Oil Red O working solution (prepared by diluting 30 mL of 0.5% isopropanol/Oil Red O solution with 20 mL of distilled water). After 45 minutes culture well were rinsed twice with distilled water and 1 mL of hematoxylin was added to each well for 1 minute followed by aspiration and washing with distilled water. The wells were viewed using an inverted phase contrast microscope.

[4] = test system: mesenchymal stem cells (MSCs); assay: MSC osteogenic differentiation, alkaline phosphatase staining; format: cell-based, human; details: 250 μM, 23 days
Protocol: as §1
Osteogenic Differentiation. MSCs were seeded in the wells of 24 well plates, and were culture in MSC expansion media until they reach 90% confluence (note: in control samples there was no amphiphile present, whereas in experimental samples 250 μM of Apn-based amphiphile was present). Osteogenic differentiation was induced by culturing the cells for 23 days in osteogenic induction media (from Lonza—MSCs Osteogenic Single Quote kit) containing dexamethasone, β-glycerophosphate, L-ascorbic acid-2-phosphate, and α-MEM. The media in both groups was changed every 3 days (note: each time while changing the media, 250 μM of Apn-based amphiphiles were added to maintain constant concentration). Osteogenesis was evaluated by cell membrane associated alkaline phosphatase activity. Alkaline phosphatase activity was examined after 23 days by carefully aspirating the media and washing the cells with PBS. The cells were fixed with 3.7% formaldehyde solution for 15 min at room temperature followed by rinsing with distilled water. 0.06% Red Violet LB salt solution in Tris HCl was added with distilled water containing DMF and Naphthol AS MX-PO4. The plates were incubated for 45 minutes at room temperature and then the wells were rinsed 3 times with distilled water and imaged under with inverted phase contrast microscope.

CC(=O)Nc1ccc(OC(=O)CCCCCCC(=O)O)cc1 [Apn-7-COOH]
solubility in basic solutions ([1]; pH is more than 8): soluble | Gelation ability ([1]; solvent chloroform): S | Gelation ability ([1]; solvent ethanol): S | Gelation ability ([1]; solvent ethyl acetate): I | Gelation ability ([1]; solvent isopropanol): I | Gelation ability ([1]; solvent methanol): S | Gelation ability ([1]; solvent t-butanol): I | Gelation ability ([1]; solvent water): G | minimum gelation concentration ([1]; solvent water): 0.4 wt/v % | gelation in water (in words) ([1]; water / aqueous solutions): forms excellent gels | time after which absorbance of released curcumin did not increase ([2]; curcumin released from degradation of hydrogel): 24 h | time of first aliquots showing curcumin absorption maxima (425 nm) ([2]; curcumin-encapsulated hydrogel 2 wt %, lipase, 37° C.): 4 h | burst release of curcumin ([2]; curcumin-encapsulated hydrogel 2 wt %, lipase, 37° C., absorbance maxima vs time): absence of burst release | products found by thin-layer chromatography after gel degradation ([2]; hydrogel 2 wt %, lipase, 37° C., 48 hours): acetaminophen and α,ω-dicarboxylicacid were generated | time after which the gel completely degraded ([2]; preformed hydrogel 2 wt %, lipase added, 37° C.): 48 h | adipogenic differentiation, Oil Red O (ORO) staining [3]: robust capacity; also recorded: equally stained for ORO | osteogenic differentiation, alkaline phosphatase (ALP) staining [4]: robust capacity; also recorded: equally stained for ALP
